Series [1] can be described thus: Open-label absolute bioavailability / pharmacokinetic study of intranasal ketamine in healthy volunteers. It counts as in vivo, human. The settings on record: for AUC(0-t): read-out: AUC (0-4 hr); for bioavailability / Absolute Bioavailability (%): relative to IV, dose-corrected ratio of least squares geometric mean AUC(inf). The procedure: This was an open-label study in 25 healthy volunteers. Subjects received single doses of ketamine by intravenous (IV) injection (20 mg), intramuscular (IM) injection (20 mg), or intranasal (IN) administration (20 mg, 40 mg and 80 mg).
Blood samples for the measurement of plasma concentrations of (R)- and (S)-ketamine and (R)- and (S)-norketamine were collected pre-dose and at 0.033, 0.083, 0.167, 0.25, 0.333, 0.5, 0.75, 1, 1.25, 2, 2.5, 3, 4, 6, 8, 12, 16, and 24 hours post-dose for each study period.
All estimates for the parent and metabolite were consistent within each formulation or dose for the racemate, (R)-, and (S)-enantiomers. After IN administration, the estimates were slightly higher for the metabolite than the parent.

In another series the target is NMDA receptors. The settings on record: cited from earlier work.
The conditions of series [2]: acidic pH near 4.5. The text has this:
A Buffer may be used to control the pH of the nasal spray solution at, or near 4.5. […] Also, the local pH value inside the nasal cavity directly influences the rate and extent of drug absorption. […] Additionally, maintaining pH at or above 4.0 helps to reduce local nasal tract irritation. The buffer is optional.

Where [3] appears, read: Dose 20 mg, hydro-alcoholic composition, minimum-maximum.
The mark [4] stands for this setting: Dose 40 mg, hydro-alcoholic composition, minimum-maximum.
[5] abbreviates: human, plasma, inhaled or intranasal, 20 mg, AUC (0-1 hr), intranasal, effective amount 20 mg.
Setting [6] is: human, plasma, inhaled or intranasal, 20 mg, intranasal, effective amount 20 mg.
Where [7] appears, read: human, plasma, inhaled or intranasal, intranasal, effective amount 20 mg.
Where [8] appears, read: human, plasma, other: intranasal, Dose 20 mg, hydro-alcoholic composition, minimum-maximum.
The mark [9] stands for this setting: human, plasma, other: intranasal, Dose 40 mg, hydro-alcoholic composition, minimum-maximum.
Setting [10] is: human, plasma, other: intranasal, IN administration of racemic ketamine 20 mg.
[11] abbreviates: human, plasma, other: intranasal, IN administration of racemic ketamine 40 mg.
Where [12] appears, read: human, plasma, other: intranasal, IN administration of racemic ketamine 80 mg.
Where [13] appears, read: IN administration of racemic ketamine 20 mg.
The mark [14] stands for this setting: IN administration of racemic ketamine 40 mg.
Setting [15] is: IN administration of racemic ketamine 80 mg.
The mark [16] stands for this setting: Dose 10 mg, hydro-alcoholic composition, minimum-maximum.
Setting [17] is: human, plasma, other: intranasal, Dose 10 mg, hydro-alcoholic composition, minimum-maximum.

Like-named read-outs stand apart in the source and are kept apart here.

Regarding `CNC1(c2ccccc2Cl)CCCCC1=O` (racemic) [(RS)-Ketamine, (2-(2-chlorophenyl)-2-(methylamino)-cyclohexanone)], the “AUC(0-1 hr)” value in series [1] (setting [3]) was 28.7-127 hr′ng/mL; in series [1] (setting [4]) it was 71.4-225 hr′ng/mL; in series [1] (setting [5]), 28.7 to 127 ng·h/mL; in series [1] (human, plasma, inhaled or intranasal, 40 milligrams, AUC (0-1 hr), intranasal, effective amount 40 milligrams), 71.4 to 225 ng·h/mL. The “AUC(0-4 hr)” value in series [1] (setting [3]) is reported as 60.0-209 hr′ng/mL; in series [1] (setting [4]), 160-433 hr′ng/mL. In addition, the AUC(0-t) in series [1] (setting [6]) fell in the range of 60 to 209 ng·h/mL; in series [1] (human, plasma, inhaled or intranasal, 40 milligrams, intranasal, effective amount 40 milligrams) it was 160 to 433 ng·h/mL. Besides, the Tmax lay within 4.98 to 30 min in series [1] (setting [7]); 10 to 30 min in series [1] (human, plasma, inhaled or intranasal, intranasal, effective amount 40 milligrams); 4.98 to 30 min in series [1] (setting [8]); 10 to 30 min in series [1] (setting [9]). Moreover, the figures for the Cmax in series [1] (setting [8]) and in series [1] (setting [9]) were 48 to 280 ng/mL and 94.7 to 367 ng/mL, respectively. Besides, the bioavailability in series [1] (setting [10]) turned out to be 82.1%; in series [1] (setting [11]), 69.1%; in series [1] (setting [12]), 51.8%.

`NC1(c2ccccc2Cl)CCCCC1=O` (racemic) [(RS)-Norketamine]: the results for the “Absolute Bioavailability (%)” value in series [1] (setting [13]), in series [1] (setting [14]) and in series [1] (setting [15]) were 94.4%, 78.8% and 54.8%, respectively.

As for `CN[C@@]1(c2ccccc2Cl)CCCCC1=O` [(R)-Ketamine], the Ki on NMDA receptors is 1.1 µM. In addition, the “AUC(0-1 hr)” value in series [1] (setting [16]) was 15.9-70.8 hr′ng/mL; in series [1] (setting [3]) it was 40.5-129 hr′ng/mL. Also, the figures for the “AUC(0-4 hr)” value in series [1] (setting [16]) and in series [1] (setting [3]) were 33.6-118 hr′ng/mL and 93.0-251 hr′ng/mL, respectively. In addition, the Cmax was in the range of 26.5 to 155 ng/mL in series [1] (setting [17]) and 53.4 to 206 ng/mL in series [1] (setting [8]). Besides, the Tmax lay in the range of 4.98 to 30 min in series [1] (setting [17]) and 10 to 30 min in series [1] (setting [8]). The bioavailability was determined as 81.6% in series [1] (setting [10]), 68.6% in series [1] (setting [11]) and 51.1% in series [1] (setting [12]).

In the case of `N[C@@]1(c2ccccc2Cl)CCCCC1=O` [(R)-Norketamine], the “Absolute Bioavailability (%)” value in series [1] (setting [13]) came out at 90.7%; in series [1] (setting [14]), 77.8%; in series [1] (setting [15]), 54.3%.

Take `CN[C@]1(c2ccccc2Cl)CCCCC1=O` [(S)-Ketamine]: the Ki at NMDA receptors is 3.2 µM. Also, the “AUC(0-1 hr)” value in series [1] (setting [16]) is 12.8-55.8 hr′ng/mL; in series [1] (setting [3]), 30.9-96.7 hr′ng/mL; in series [1] (human, plasma, inhaled or intranasal, 10 mg, AUC (0-1 hr), intranasal, effective amount 10 mg), 12.8 to 55.8 ng·h/mL; in series [1] (setting [5]), 30.9 to 96.7 ng·h/mL. Further, the “AUC(0-4 hr)” value in series [1] (setting [16]) is reported as 26.4-90.4 hr′ng/mL; in series [1] (setting [3]), 66.9-181 hr′ng/mL. The AUC(0-t) in series [1] (human, plasma, inhaled or intranasal, 10 mg, intranasal, effective amount 10 mg) is 26.4 to 90.4 ng·h/mL; in series [1] (setting [6]), 66.9 to 181 ng·h/mL. In addition, the Tmax lay within 5 to 19.8 min in series [1] (human, plasma, inhaled or intranasal, intranasal, effective amount 10 mg); 10 to 30 min in series [1] (setting [7]); 5 to 20 min in series [1] (setting [17]); 10 to 30 min in series [1] (setting [8]). Further, the Cmax in series [1] (setting [17]) was 21.4 to 125 ng/mL; in series [1] (setting [8]), 41.3 to 161 ng/mL. In addition, the bioavailability in series [1] (setting [10]) was found to be 82.4%; in series [1] (setting [11]) it was 68.9%; in series [1] (setting [12]), 51.5%.

Take `N[C@]1(c2ccccc2Cl)CCCCC1=O` [(S)-Norketamine]: the “Absolute Bioavailability (%)” value worked out at 92.4% in series [1] (setting [13]), 77.8% in series [1] (setting [14]) and 54.9% in series [1] (setting [15]).

Consider `CNC1(c2ccccc2Cl)CCCCC1=O.Cl` (stereo not drawn) [Es/ketamine HCl], for which, in series [2], the stability of solution result is listed as “better stability”.

By Cmax is commonly meant the maximum level reached in the sampled fluid or tissue. A word on the bioavailability: it is the share of a dose that reaches the circulation, judged against a reference dose that is usually intravenous. As a reminder, the Ki is a dissociation constant, usually derived from enzyme kinetics or from competition with a known ligand.

These data come from patent US20250241873A1, “KETAMINE NASAL SPRAY FORMULATION AND METHODS OF USE” (INESKET LLC, priority 2024, published 2025).
